# Assay results: patent publication US20060263802A1 (priority 2003, published 2006)
# What was measured:
# Type in all cases: binding
# [1] = test system: human monoclonal antibody CRJB
# [2] = test system: human monoclonal antibody CRJA
# [3] = test system: human monoclonal antibody CRJB; remark: listed apart in the source
# [4] = test system: human monoclonal antibody CR57
# [5] = test system: human monoclonal antibody CRJA; remark: listed apart in the source
# [6] = test system: human monoclonal antibody CR57; remark: listed apart in the source
sequence,measurement,setting,value
ECLDALESIMTTKSV,Binding of CRJB to linear peptide (PEPSCAN-ELISA signal),[1],112
same,Binding of CRJA (10 μg/ml) to looped/cyclic peptide (PEPSCAN-ELISA),[2],110
same,Binding of CRJB (10 μg/ml) to looped/cyclic peptide (PEPSCAN-ELISA),[3],90
same,Binding of CR57 (10 μg/ml) to looped/cyclic peptide (PEPSCAN-ELISA),[4],96
same,Binding of CRJA to linear peptide (PEPSCAN-ELISA signal),[5],103
same,Binding of CR57 to linear peptide (PEPSCAN-ELISA signal),[6],91
EDEGCTNLSGFSYME,Binding of CRJB to linear peptide (PEPSCAN-ELISA signal),[1],90
same,Binding of CRJA (10 μg/ml) to looped/cyclic peptide (PEPSCAN-ELISA signal),[2],54
same,Binding of CRJB (10 μg/ml) to looped/cyclic peptide (PEPSCAN-ELISA signal),[3],68
same,Binding of CR57 (10 μg/ml) to looped/cyclic peptide (PEPSCAN-ELISA signal),[4],76
same,Binding of CRJA to linear peptide (PEPSCAN-ELISA signal),[5],65
same,Binding of CR57 to linear peptide (PEPSCAN-ELISA signal),[6],54
EDFVEVHLPDVHNQV,Binding of human monoclonal antibody CRJB to linear peptide (PEPSCAN-ELISA signal),[1],141
same,Binding of CRJA to looped/cyclic peptide (PEPSCAN-ELISA signal),[2],104
same,Binding of CRJB to looped/cyclic peptide (PEPSCAN-ELISA signal),[3],89
same,Binding of CR57 to looped/cyclic peptide (PEPSCAN-ELISA signal),[4],117
same,Binding of human monoclonal antibody CRJA to linear peptide (PEPSCAN-ELISA signal),[5],114
same,Binding of human monoclonal antibody CR57 to linear peptide (PEPSCAN-ELISA signal),[6],90
EECLDALESIMTTKS,Binding of CRJB to linear peptide (PEPSCAN-ELISA signal),[1],120
same,Binding of CRJA (10 μg/ml) to looped/cyclic peptide (PEPSCAN-ELISA),[2],105
same,Binding of CRJB (10 μg/ml) to looped/cyclic peptide (PEPSCAN-ELISA),[3],70
same,Binding of CR57 (10 μg/ml) to looped/cyclic peptide (PEPSCAN-ELISA),[4],105
same,Binding of CRJA to linear peptide (PEPSCAN-ELISA signal),[5],98
same,Binding of CR57 to linear peptide (PEPSCAN-ELISA signal),[6],82
EELVRKREECLDALE,Binding of CRJB to linear peptide (PEPSCAN-ELISA signal),[1],112
same,Binding of CRJA (10 μg/ml) to looped/cyclic peptide (PEPSCAN-ELISA),[2],104
same,Binding of CRJB (10 μg/ml) to looped/cyclic peptide (PEPSCAN-ELISA),[3],2
same,Binding of CR57 (10 μg/ml) to looped/cyclic peptide (PEPSCAN-ELISA),[4],79
same,Binding of CRJA to linear peptide (PEPSCAN-ELISA signal),[5],118
same,Binding of CR57 to linear peptide (PEPSCAN-ELISA signal),[6],69
EESLHNPYPDYRWLR,Binding of CRJB to linear peptide (PEPSCAN-ELISA signal),[1],123
same,Binding of CRJA (10 μg/ml) to looped/cyclic peptide (PEPSCAN-ELISA signal),[2],100
same,Binding of CRJB (10 μg/ml) to looped/cyclic peptide (PEPSCAN-ELISA signal),[3],85
same,Binding of CR57 (10 μg/ml) to looped/cyclic peptide (PEPSCAN-ELISA signal),[4],121
same,Binding of CRJA to linear peptide (PEPSCAN-ELISA signal),[5],85
same,Binding of CR57 to linear peptide (PEPSCAN-ELISA signal),[6],76
EGCTNLSGFSYMELK,Binding of CRJB to linear peptide (PEPSCAN-ELISA signal),[1],114
same,Binding of CRJA (10 μg/ml) to looped/cyclic peptide (PEPSCAN-ELISA signal),[2],38
same,Binding of CRJB (10 μg/ml) to looped/cyclic peptide (PEPSCAN-ELISA signal),[3],73
same,Binding of CR57 (10 μg/ml) to looped/cyclic peptide (PEPSCAN-ELISA signal),[4],39
same,Binding of CRJA to linear peptide (PEPSCAN-ELISA signal),[5],59
same,Binding of CR57 to linear peptide (PEPSCAN-ELISA signal),[6],51
EHLVVEELVRKREEC,Binding of CRJB to linear peptide (PEPSCAN-ELISA signal),[1],114
same,Binding of CRJA (10 μg/ml) to looped/cyclic peptide (PEPSCAN-ELISA),[2],93
same,Binding of CRJB (10 μg/ml) to looped/cyclic peptide (PEPSCAN-ELISA),[3],83
same,Binding of CR57 (10 μg/ml) to looped/cyclic peptide (PEPSCAN-ELISA),[4],89
same,Binding of CRJA to linear peptide (PEPSCAN-ELISA signal),[5],76
same,Binding of CR57 to linear peptide (PEPSCAN-ELISA signal),[6],82
EIEHLVVEELVRKRE,Binding of CRJB to linear peptide (PEPSCAN-ELISA signal),[1],113
same,Binding of CRJA (10 μg/ml) to looped/cyclic peptide (PEPSCAN-ELISA),[2],93
same,Binding of CRJB (10 μg/ml) to looped/cyclic peptide (PEPSCAN-ELISA),[3],89
same,Binding of CR57 (10 μg/ml) to looped/cyclic peptide (PEPSCAN-ELISA),[4],107
same,Binding of CRJA to linear peptide (PEPSCAN-ELISA signal),[5],86
same,Binding of CR57 to linear peptide (PEPSCAN-ELISA signal),[6],82
EILPSKGCLRVGGRC,Binding of CRJB to linear peptide (PEPSCAN-ELISA signal),[1],112
same,Binding of CRJA (10 μg/ml) to looped/cyclic peptide (PEPSCAN-ELISA),[2],111
same,Binding of CRJB (10 μg/ml) to looped/cyclic peptide (PEPSCAN-ELISA),[3],97
same,Binding of CR57 (10 μg/ml) to looped/cyclic peptide (PEPSCAN-ELISA),[4],132
same,Binding of CRJA to linear peptide (PEPSCAN-ELISA signal),[5],106
same,Binding of CR57 to linear peptide (PEPSCAN-ELISA signal),[6],104
ELKVGYILAIKMNGF,Binding of CRJB to linear peptide (PEPSCAN-ELISA signal),[1],132
same,Binding of CRJA (10 μg/ml) to looped/cyclic peptide (PEPSCAN-ELISA signal),[2],93
same,Binding of CRJB (10 μg/ml) to looped/cyclic peptide (PEPSCAN-ELISA signal),[3],83
same,Binding of CR57 (10 μg/ml) to looped/cyclic peptide (PEPSCAN-ELISA signal),[4],84
same,Binding of CRJA to linear peptide (PEPSCAN-ELISA signal),[5],84
same,Binding of CR57 to linear peptide (PEPSCAN-ELISA signal),[6],87
ELLESSVIPLVHPLA,Binding of CRJB to linear peptide (PEPSCAN-ELISA signal),[1],133
same,Binding of CRJA (10 μg/ml) to looped/cyclic peptide (PEPSCAN-ELISA),[2],73
same,Binding of CRJB (10 μg/ml) to looped/cyclic peptide (PEPSCAN-ELISA),[3],88
same,Binding of CR57 (10 μg/ml) to looped/cyclic peptide (PEPSCAN-ELISA),[4],112
same,Binding of CRJA to linear peptide (PEPSCAN-ELISA signal),[5],85
same,Binding of CR57 to linear peptide (PEPSCAN-ELISA signal),[6],90
